{
  "source": "ChEMBL document CHEMBL4706679",
  "about": "“Targeting Necrosis: Elastase-like Protease Inhibitors Curtail Necrotic Cell Death Both In Vitro and in Three In Vivo Disease Models” (J Med Chem, 2021)",
  "key": {"U-937 [1]": {"test_system": "U-937", "experiment": "Inhibition KCN-induced elastase like activity in human U-937 cells using substrate MAAPV", "format": "cell-based"}, "PC-12 [2]": {"test_system": "PC-12", "experiment": "Protection against KCN-induced necrosis in […] cells assessed as reduction in KCN-induced cell death at 10 to 300 uM incubated for 5 hrs by LDH release assay", "format": "functional, cell-based", "details": "dose 10-300 µM"}, "Mus musculus [3]": {"test_system": "Mus musculus", "experiment": "Protection against necrosis in C57BL/6J mouse model of traumatic brain injury assessed as decrease in necrotic space in brains at 100 ug, icv measured 24 hrs post injury by TTC staining based analysis", "format": "functional", "design": "scale not given: the % may be the effect or the level left", "details": "dose 100 µg"}, "[4]": {"experiment": "Toxicity in sham control C57BL/6J mouse at 100 ug, icv", "details": "in vivo, icv_or_intrathecal, dose 100 µg"}, "U-937 [5]": {"test_system": "U-937", "experiment": "(§1) Inhibition KCN-induced elastase like activity in human U-937 cells at 0.01 to 100 uM using substrate MAAPV", "format": "cell-based", "details": "dose 0.01-100 µM"}, "[6]": {"experiment": "as §1", "format": "cell-based"}, "Mus musculus [7]": {"test_system": "Mus musculus", "experiment": "Protection against necrosis in C57BL/6J mouse model of traumatic brain injury assessed as decrease in neuronal damage in brain at 100 ug, icv measured 1 hr post injury by neurological severity score based analysis", "format": "functional, organism-based", "details": "dose 100.0 µg"}, "PC-12 [8]": {"test_system": "PC-12", "experiment": "Protection against KCN-induced necrosis in […] cells assessed as reduction in KCN-induced cell death at 20 to 100 uM incubated for 5 hrs by LDH release assay", "format": "functional, cell-based", "details": "dose 20-100 µM"}, "U-937 [9]": {"test_system": "U-937", "experiment": "Inhibition oligomycin-induced elastase like activity in human U-937 cells at 100 uM by substrate gel electrophoresis", "format": "cell-based"}, "U-937 [10]": {"test_system": "U-937", "experiment": "Inhibition anti-Fas antibody-induced elastase like activity in human U-937 cells at 100 uM by substrate gel electrophoresis", "format": "cell-based"}, "Mus musculus [11]": {"test_system": "Mus musculus", "experiment": "Protection against necrosis in C57BL/6J mouse model of paracetamol-induced […] assessed as reduction in liver ALT levels at 30 mg/kg, ip dosed 4 hrs after paracetamol injection and measured 24 hrs post paracetamol injection by", "format": "functional", "design": "scale not given: the % may be the effect or the level left", "details": "time 28 hrs"}, "Mus musculus [12]": {"test_system": "Mus musculus", "experiment": "Protection against necrosis in C57BL/6J mouse model of paracetamol-induced […] assessed as reduction in liver AST levels at 10 mg/kg, ip dosed 4 hrs after paracetamol injection and measured 24 hrs post paracetamol injection by", "format": "functional, organism-based", "details": "time 28.0 hrs"}, "Mus musculus [13]": {"test_system": "Mus musculus", "experiment": "Protection against necrosis in C57BL/6J mouse model of paracetamol-induced […] assessed as reduction in liver GPT levels at 30 mg/kg, ip dosed 4 hrs after paracetamol injection and measured 24 hrs post paracetamol injection by", "format": "functional", "design": "scale not given: the % may be the effect or the level left", "details": "time 28 hrs"}, "Mus musculus [14]": {"test_system": "Mus musculus", "experiment": "Protection against necrosis in C57BL/6J mouse model of paracetamol-induced […] assessed as reduction in liver GOT levels at 30 mg/kg, ip dosed 4 hrs after paracetamol injection and measured 24 hrs post paracetamol injection by", "format": "functional", "design": "scale not given: the % may be the effect or the level left", "details": "time 28 hrs"}, "Mus musculus [15]": {"test_system": "Mus musculus", "experiment": "Protection against necrosis in C57BL/6J mouse model of paracetamol-induced […] assessed as reduction in liver GPT levels at 10 mg/kg, ip dosed 4 hrs after paracetamol injection and measured 24 hrs post paracetamol injection by", "format": "functional, organism-based", "details": "time 28.0 hrs"}, "Mus musculus [16]": {"test_system": "Mus musculus", "experiment": "Protection against necrosis in C57BL/6J mouse model of paracetamol-induced […] assessed as reduction in liver GOT levels at 10 mg/kg, ip dosed 4 hrs after paracetamol injection and measured 24 hrs post paracetamol injection by", "format": "functional, organism-based", "details": "time 28.0 hrs"}, "Mus musculus [17]": {"test_system": "Mus musculus", "experiment": "Protection against necrosis in C57BL/6J mouse model of paracetamol-induced […] assessed as reduction in liver AST levels at 30 mg/kg, ip dosed 4 hrs after paracetamol injection and measured 24 hrs post paracetamol injection by", "format": "functional", "design": "scale not given: the % may be the effect or the level left", "details": "time 28 hrs"}, "Mus musculus [18]": {"test_system": "Mus musculus", "experiment": "Protection against necrosis in C57BL/6J mouse model of paracetamol-induced […] assessed as reduction in liver ALT levels at 10 mg/kg, ip dosed 4 hrs after paracetamol injection and measured 24 hrs post paracetamol injection by", "format": "functional, organism-based", "details": "time 28.0 hrs"}, "Mus musculus [19]": {"test_system": "Mus musculus", "experiment": "Protection against necrosis in Balb/c mouse model of model of myocardial infarction/reperfusion assessed as reduction in infarct size at 30 mg/kg, iv followed by ischemia and reperfusion and subsequent second dosing at 30 mg/kg, iv and measured after 6 hrs post reperfusion by TTC staining based analysis", "format": "functional", "design": "scale not given: the % may be the effect or the level left", "details": "dose 60 mg/kg"}},
  "note": "Activity calls are given as the source filed them. The rule behind the calls is not given here. Where a SMILES comes first, the peptide text is derived from it. The star is where a group is joined. MeOSuc = COC(=O)CCC(=O)*; Cbz = O=C(OCc1ccccc1)*; CH2Cl = ClC*",
  "data": [
    {"smiles": "CCOC(=O)[C@H]1O[C@@H]1C(=O)N[C@@H](CC(C)C)C(=O)NCCC(C)C", "values": [
      {"measurement": "inhibition", "setting": "U-937 [1]", "value": "inactive"}
    ]},
    {"smiles": "COC(=O)CCC(=O)N[C@@H](C)C(=O)N[C@@H](C)C(=O)N1CCC[C@H]1C(=O)N[C@H](C(=O)CCl)C(C)C", "note": "(MeOSuc-AAPV-CH2Cl)", "values": [
      {"measurement": "Activity", "setting": "PC-12 [2]", "value": "Dose-dependent effect"},
      {"measurement": "Activity", "setting": "Mus musculus [3]", "value": 50, "unit": "%"},
      {"measurement": "Activity", "setting": "[4]", "value": "Non-Toxic"},
      {"measurement": "inhibition", "setting": "U-937 [5]", "value": "Dose-dependent effect"},
      {"measurement": "IC50", "setting": "[6]", "value": 2.74, "unit": "µM"},
      {"measurement": "Activity", "setting": "Mus musculus [7]", "value": "Active"}
    ]},
    {"smiles": "CC(C)(C)C(=O)Oc1ccc(S(=O)(=O)Nc2ccccc2C(=O)NCC(=O)O)cc1", "values": [
      {"measurement": "Activity", "setting": "PC-12 [8]", "value": "Dose-dependent effect"}
    ]},
    {"smiles": "Cc1ccc(S(=O)(=O)N[C@@H](Cc2ccccc2)C(=O)CCl)cc1", "values": [
      {"measurement": "inhibition", "setting": "U-937 [9]", "value": "inactive"},
      {"measurement": "inhibition", "setting": "U-937 [10]", "value": "inactive"}
    ]},
    {"smiles": "CN1C(=O)Cc2ccc(-c3ccc(C[C@@H](C#N)NC(=O)[C@H]4N[C@@H]5CC[C@H]4C5)c(F)c3)cc21", "values": [
      {"measurement": "Activity", "setting": "PC-12 [2]", "value": "Dose-dependent effect"}
    ]},
    {"smiles": "O=C(c1csc(N2CCCCC2)n1)N1CCCC1", "values": [
      {"measurement": "Activity", "setting": "Mus musculus [11]", "value": 100, "unit": "%"},
      {"measurement": "Activity", "setting": "Mus musculus [12]", "value": "Active"},
      {"measurement": "Activity", "setting": "Mus musculus [13]", "value": 100, "unit": "%"},
      {"measurement": "Activity", "setting": "Mus musculus [14]", "value": 100, "unit": "%"},
      {"measurement": "Activity", "setting": "Mus musculus [15]", "value": "Active"},
      {"measurement": "Activity", "setting": "Mus musculus [16]", "value": "Active"},
      {"measurement": "Activity", "setting": "Mus musculus [17]", "value": 100, "unit": "%"},
      {"measurement": "Activity", "setting": "Mus musculus [18]", "value": "Active"}
    ]},
    {"smiles": "O=C[C@H](Cc1ccc(O)cc1)NC(=O)[C@H](Cc1ccccc1)NC(=O)OCc1ccccc1", "note": "(Cbz-Phe-Tyr-aldehyde)", "values": [
      {"measurement": "inhibition", "setting": "U-937 [1]", "value": "inactive"}
    ]},
    {"smiles": "CCC(=O)N1CCN=C1N1CCN(C)CC1", "values": [
      {"measurement": "Activity", "setting": "Mus musculus [19]", "value": 30, "unit": "%"}
    ]},
    {"smiles": "CC(C)C[C@H](NC(=O)N[C@H](C(=O)N[C@@H](CCC(N)=O)C(=O)N[C@@H](C)C=O)C1CCNC(=N)N1)C(=O)O", "note": "(some centres undefined)", "values": [
      {"measurement": "inhibition", "setting": "U-937 [9]", "value": "Active"},
      {"measurement": "Activity", "setting": "PC-12 [2]", "value": "inactive"},
      {"measurement": "inhibition", "setting": "U-937 [10]", "value": "Active"}
    ]}
  ]
}
